According to patent US5360909A, “Phenoxyacetic acid compounds and medical preparations containing them” (Terumo Kabushiki Kaisha, priority 1992, dated 1994):

Legend:
thromboxane A2 (TXA2) = test: Antagonistic effect to TXA2: contraction of isolated guinea pig tracheal strips; type: cell-based, Hartley male guinea pigs; conditions: Cavia porcellus, in vitro, TXA2 10^-7 M, Tyrode solution 37° C.
Procedure: (§1) The in vitro IC50 value of the antagonistic effect of the compounds of the present invention to TXA2 and LTD4 was obtained, using the following test system. Tracheal strips isolated from Hartley male guinea pigs (weight: 300 to 500 g) were suspended under a tension of 0.3 g in a Tyrode solution at 37° C. in an organ bath, to which a mixed gas of oxygen (95%)-carbon dioxide (5%) was introduced. After letting the above stabilize for about one hour, TXA2 (produced by Cayman Co.) or LTD4 (produced by Wako Pure Chemicals CO.) was added to the organ bath in a concentration-of 10^-7 M and 10^-8 M respectively, whereupon the contraction of the sections was measured as a standard. The strips were treated with various amounts of the compounds of Examples 1-8, whereupon the contraction of the tracheal preparations upon dosing with TXA2 or LTDS4 was again measured. From the values thus measured, the IC50 (Inhibition concentration) of the compound added was calculated. The results are shown in Table 1 below; the smaller the amount of the compound, the stronger its effectiveness.

leukotriene D4 (LTD4) = test: Antagonistic effect to LTD4: contraction of isolated guinea pig tracheal strips; type: cell-based, Hartley male guinea pigs; conditions: Cavia porcellus, in vitro, LTD4 10^-8 M, Tyrode solution 37° C.
Procedure: as §1

Row | Structure (SMILES) | IC50 (thromboxane A2 (TXA2)) | IC50 (leukotriene D4 (LTD4))
1 | O=C(O)COc1ccc(CCNS(=O)(=O)c2ccc(Cl)cc2)c(OCc2cccc(OCc3ccc4ccccc4n3)c2)c1 [Example 4, 4-[2-(4-chlorobenzenesulfonamido)ethyl]-3-(3-(2-quinolinemethoxy)benzyloxy]phenoxyacetic acid] | 0.59 µM | 0.21 µM
2 | O=C(O)COc1ccc(CCNS(=O)(=O)c2ccc(Cl)cc2)cc1NC(=S)Nc1cccc(OCc2ccc3ccccc3n2)c1 [Example 5, 4-[2-(4-chlorobenzenesulfonamido)ethyl]-2-{3-[3-(2-quinolinemethoxy)phenyl]thioureido}phenoxyacetic acid] | 0.025 µM | 0.072 µM
3 | CCCc1c(OCCCC(=O)Nc2cc(CCNS(=O)(=O)c3ccc(Cl)cc3)ccc2OCC(=O)O)ccc(C(C)=O)c1O [Example 6, 4-[2-(4-chlorobenzenesulfonamido)ethyl]-2-[(4-acetyl-3-hydroxy-2-propyl)phenoxy-4-butamido]phenoxyacetic acid] | 0.0082 µM | 0.16 µM
4 | CCCc1c(OCCCCC(=O)Nc2cc(CCNS(=O)(=O)c3ccc(Cl)cc3)ccc2OCC(=O)O)ccc(C(C)=O)c1O [Example 7, 4-[2-(4-chlorobenzenesulfonamido)ethyl]-2-[(4-acetyl-3-hydroxy-2-propyl)phenoxy-5-pentamido]phenoxyacetic acid] | 0.019 µM | 0.076 µM
5 | CCCc1c(OCCCCCC(=O)Nc2cc(CCNS(=O)(=O)c3ccc(Cl)cc3)ccc2OCC(=O)O)ccc(C(C)=O)c1O [Example 8, 4-[2-(4-chlorobenzenesulfonamido)ethyl]-2-[(4-acetyl-3-hydroxy-2-propyl)phenoxy-6-hexamido]phenoxyacetic acid] | 0.04 µM | 0.26 µM

Now those with a lower IC50 (thromboxane A2 (TXA2)), led by results:

Row | IC50 (thromboxane A2 (TXA2)) | IC50 (leukotriene D4 (LTD4)) | Structure (SMILES)
6 | 0.0042 µM | 0.065 µM | O=C(O)COc1ccc(CCNS(=O)(=O)c2ccc(Cl)cc2)cc1NC(=O)c1cccc(OCc2ccc3ccccc3n2)c1 [Example 1, 4-[2-(4-chlorobenzenesulfonamido)ethyl]-2-[3-(2-quinolinemethoxy)benzoylamino]phenoxyacetic acid]
7 | 0.0035 µM | 8.3 µM | O=C(O)COc1ccc(CCNS(=O)(=O)c2ccc(Cl)cc2)c(OCc2ccc3ccccc3n2)c1 [Example 3, 4-[2-(4-chlorobenzenesulfonamido)ethyl]-3-(2-quinolinemethoxy)phenoxyacetic acid]
8 | 0.0034 µM | 0.038 µM | O=C(O)COc1ccc(CCNS(=O)(=O)c2ccccc2)cc1NC(=O)c1cccc(OCc2ccc3ccccc3n2)c1 [Example 2, 4-[2-(benzenesulfonylamino)ethyl]-2-[3-(2-quinolinemethoxy)benzoylamino]phenoxyacetic acid]
